Data reported in US20090093423A2, “NOVEL 2-SUBSTITUTED METHYL PENAM DERIVATIVES” (Orchid Chemicals and Pharmaceuticals Limited, priority 2006, published 2009).

Molecular target: Penicillinase enzyme
Experiment: β-Lactamase assay (Centa substrate)
Assay type: biochemical
Conditions: FIG. 1
Protocol: Representative novel compounds were subjected to β-lactamase assay to determine and compare their IC50 with that of Tazo as described elsewhere (Bebrone et. al, 2001, Antimicrob. Agents. Chemother. 45(6): 1868-1871; Jamieson et. al, 2003, Antimicrob. Agents. Chemother. 47(5): 1652-1657). Briefly enzyme inhibition assays with Tazo acid as the standard inhibitor for % inhibitions & IC50 value with optimized concentrations of Penicillinase enzyme & Centa β-lactamase substrate were performed.

Row | SMILES | IC50 compared with Tazo
1 | CCC[n+]1ccn(C[C@@]2(C)[C@H](C(=O)[O-])N3C(=O)C[C@H]3S2(=O)=O)n1 [Example 3, 1-{[(2S,3S,5R)-2-Carboxy-3-methyl-4,4,7-trioxo-4-thia-1-azabicyclo[3.2.0]hept-3-yl]methyl}-3-n-propyl-1H-1,2,3-triazol-3-ium] | comparatively lower
2 | C=CC[n+]1ccn(C[C@@]2(C)[C@H](C(=O)[O-])N3C(=O)C[C@H]3S2(=O)=O)n1 [Example 4, 1-{[(2S,3S,5R)-2-Carboxy-3-methyl-4,4,7-trioxo-4-thia-1-azabicyclo[3.2.0]hept-3-yl]methyl}-3-allyl-1H-1,2,3-triazol-3-ium] | comparatively lower
3 | C[C@]1(Cn2cc[n+](CC(N)=O)n2)[C@H](C(=O)[O-])N2C(=O)C[C@H]2S1(=O)=O [Example 5, 1-{[(2S,3S,5R)-2-Carboxy-3-methyl-4,4,7-trioxo-4-thia-1-azabicyclo[3.2.0]hept-3-yl]methyl}-3-(2-amino-2-oxoethyl)-1H-1,2,3-triazol-3-ium] | comparatively lower
4 | C[C@]1(Cn2cc[n+](CC(=O)N3CCOCC3)n2)[C@H](C(=O)[O-])N2C(=O)C[C@H]2S1(=O)=O [Example 7, 1-{[(2S,3S,5R)-2-Carboxy-3-methyl-4,4,7-trioxo-4-thia-1-azabicyclo[3.2.0]hept-3-yl]methyl}-3-(2-morpholin-4-yl-2-oxoethyl)-1H-1,2,3-triazol-3-ium] | comparatively lower
